The values below are quoted from earlier work in patent US6368613B1, “Use of fluorocarbons for diagnosis and treatment of articular disorders” (Alliance Pharmaceutical Corp., priority 1996, dated 2002).

Where two headings read alike, the source gives them in different places. Marks after values point to notes of the source that are not given here.

Where [1] appears, read: octanol/water partition coefficient.
[2] abbreviates: in octanol/pH 7.4 isotonic phosphate buffer at 37° C. (marked a).

In the case of `COc1ccc(C(=O)CC(=O)c2ccc(C(C)(C)C)cc2)cc1` [H-parsol 1789, parsol 1789], under setting [1], the “Log Po/w” value was 6.7 and the Po/w is given as 5.0 × 10^6.

As to `c1ccc2cc3ccccc3cc2c1` [C-anthracene, anthracene], under setting [1], the “Log Po/w” value is 4.5 and the Po/w is reported as 3.16 × 10^4.

Consider `OC(CCN1CCCCC1)(c1ccccc1)C1CCCCC1` (centres unmarked) [trihexyphenidyl], for which, under setting [2], the “Log Po/w” value is recorded as 3.17^a and the Po/w is given as 1.47 × 10^3.

As to `O=C1CN=C(c2ccccc2)c2cc([N+](=O)[O-])ccc2N1` [nitrazepam], under setting [1], the “Log Po/w” value is on record as 2.21 and the Po/w is recorded as 162.

Turning to `CCc1cc2c(s1)N(C)C(=O)CN=C2c1ccccc1Cl` [clotiazepam], under setting [2], the “Log Po/w” value is reported as 3.49^a and the Po/w is given as 3.06 × 10^3.

With `CCCCC(CC)COC(=O)c1ccc(N(C)C)cc1` (centres unmarked) [C-padimate-o, padimate-o], under setting [1], the “Log Po/w” value is 6.6 and the Po/w is given as 3.98 × 10^6.

Regarding `CC/C(=C(/CC)c1ccc(O)cc1)c1ccc(O)cc1` [H -diethylstilbesterol, diethylstilbesterol], under setting [1], the “Log Po/w” value is 5.1 and the Po/w is listed as 1.26 × 10^5.

On to `CC(=O)[C@@]1(O)CC[C@H]2[C@@H]3C[C@H](C)C4=CC(=O)C=C[C@]4(C)[C@@]3(F)[C@@H](O)C[C@@]21C` [H -fluorornetholone, fluorornetholone], for which, under setting [1], the “Log Po/w” value is recorded as 2.1 and the Po/w is 1.26 × 10^2.

Consider `CCCCN1CCCCC1C(=O)Nc1c(C)cccc1C` (centres unmarked) [bupivacaine], for which, under setting [1], the “Log Po/w” value is on record as 1.45 and the Po/w is given as 28.2.

For `CC(C)=CCN1CCC2(C)c3cc(O)ccc3CC1C2C` (centres unmarked) [pentazocin], under setting [2], the “Log Po/w” value was 2.18^a and the Po/w is recorded as 150.

As to `CCCCCC(=O)OCCOCn1cnc2c(=O)[nH]c(N)nc21` [hexanoyl acyclovir], under setting [2], the Po/w was 8.58. Further, the “Log Po/w” value (pH 7.4) is given as 0.93^a.

As for `Clc1cccc(Cl)c1N=C1NCCN1` [H-clonidine, clonidine], under setting [1], the “Log Po/w” value is reported as 1.4 and the Po/w is given as 25.1.

`CC(CN1c2ccccc2Sc2ccccc21)N(C)C` (centres unmarked) [promethazine]: under setting [2], the “Log Po/w” value was 3.10^a and the Po/w is listed as 1.27 × 10^3.

On to `CCCCC(=O)OCCOCn1cnc2c(=O)[nH]c(N)nc21` [valeryl acyclovir], for which, under setting [2], the Po/w is on record as 2.01. Moreover, the “Log Po/w” value (pH 7.4) is 0.30^a.

Take `CCCCNc1ccc(C(=O)OCCN(C)C)cc1` [tetracaine]: under setting [1], the “Log Po/w” value is listed as 1.90 and the Po/w is 79.4.

As for `C[C@]12CC[C@H]3[C@@H](CCC4=CC(=O)CC[C@@]43C)[C@@H]1CC[C@@H]2O` [C-testosterone, testosterone], under setting [1], the “Log Po/w” value was 3.3 and the Po/w is reported as 2.00 × 10^3.

As for `CCCCCCCCCCCC(=O)N1CCCCCC1` [C-hexamethylenelauramide, hexamethylenelauramide], under setting [1], the “Log Po/w” value is recorded as 7.3 and the Po/w is given as 2.00 × 10^7.

In the case of `CN(C)CCCN1c2ccccc2CCc2ccc(Cl)cc21` [clomipramine], under setting [2], the “Log Po/w” value is 3.58^a and the Po/w is reported as 3.80 × 10^3.

`FC(F)(F)C(Cl)Br` (centres unmarked) [halothane]: under setting [1], the “Log Po/w” value is on record as 2.30 and the Po/w is recorded as 2.00 × 10^2.
